Key:
Conditions in all cases: 48 h
P12-Ichikawa [1] = assay: cell viability relative to DMSO control; higher = less cytotoxic
Summary of the method: (§1)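 NOMO1 or SEM (500 cells/well) or P12-Ichikawa (1000 cells/well) leukemia cells were adapted for at least four passages in each medium. They were seeded in 1536-well plates (5 μl) and pin-dosed with library compounds in DMSO over an 11-point threefold series, 47 μM to 0.79 nM. CellTiter-Glo One luminescence was read after 48 h at 37°C. Viability is the per-plate percentage relative to DMSO wells, with cell-free wells as background.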

NOMO1 [2] = assay: as above
Summary of the method: as §1

SEM cells [3] = assay: as above
Summary of the method: as §1

P12-Ichikawa [4] = assay: AUC of viability dose-response curve (% viability x log10 dose units); higher = less sensitive
Summary of the method: (§2)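 Library compounds in DMSO were applied for 48 h at 37°C at 11 threefold doses (47 μM to 0.79 nM) to medium-adapted leukemia cells in 1536-well plates holding 500 or 1000 cells/well. Luminescence from CellTiter-Glo One was normalised plate by plate against DMSO and cell-free wells. Area under the curve came from trapezoidal integration of a log-logistic fit, after scaling curves that rose above full viability and discarding those that failed quality control. The fit had four parameters and used log10 doses.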

NOMO1 [5] = assay: as above
Summary of the method: as §2

SEM cells [6] = assay: as above
Summary of the method: as §2

N=C(N)NC(=N)N1CCOCC1
cell viability [%]
Conditions	NOMO1 [2]	P12-Ichikawa [1]	SEM cells [3]
HPLM + 10% dialyzed FBS, 0.000781 µM	102	104	97.7
HPLM + 10% dialyzed FBS, 0.00234 µM	84.7	108	97.2
HPLM + 10% dialyzed FBS, 0.00702 µM	106	107	112
HPLM + 10% dialyzed FBS, 0.0211 µM	103	113	98
HPLM + 10% dialyzed FBS, 0.0632 µM	106	106	99.1
HPLM + 10% dialyzed FBS, 0.19 µM	111	116	105
HPLM + 10% dialyzed FBS, 0.569 µM	111	109	109
HPLM + 10% dialyzed FBS, 1.71 µM	103	104	103
HPLM + 10% dialyzed FBS, 5.12 µM	103	106	86.4
HPLM + 10% dialyzed FBS, 15.4 µM	89.6	103	98.9
HPLM + 10% dialyzed FBS, 46.1 µM	87.1	108	112
RPMI 5 mM glucose + 10% FBS, 0.000781 µM	95.2	103	94
RPMI 5 mM glucose + 10% FBS, 0.00234 µM	93.1	98.3	94.5
RPMI 5 mM glucose + 10% FBS, 0.00702 µM	115	90.7	99.7
RPMI 5 mM glucose + 10% FBS, 0.0211 µM	101	93.2	96.2
RPMI 5 mM glucose + 10% FBS, 0.0632 µM	111	97.8	105
RPMI 5 mM glucose + 10% FBS, 0.19 µM	106	98.1	104
RPMI 5 mM glucose + 10% FBS, 0.569 µM	102	99.7	113
RPMI 5 mM glucose + 10% FBS, 1.71 µM	97.1	93.5	93.4
RPMI 5 mM glucose + 10% FBS, 5.12 µM	98.7	87.8	71.2
RPMI 5 mM glucose + 10% FBS, 15.4 µM	84.4	92.5	100
RPMI 5 mM glucose + 10% FBS, 46.1 µM	87.4	92.4	106
RPMI 5 mM glucose + 10% dialyzed FBS, 0.000781 µM	96.4	101	104
RPMI 5 mM glucose + 10% dialyzed FBS, 0.00234 µM	93.3	105	114
RPMI 5 mM glucose + 10% dialyzed FBS, 0.00702 µM	89.8	92.4	107
RPMI 5 mM glucose + 10% dialyzed FBS, 0.0211 µM	88.8	102	104
RPMI 5 mM glucose + 10% dialyzed FBS, 0.0632 µM	106	109	106
RPMI 5 mM glucose + 10% dialyzed FBS, 0.19 µM	104	93.8	100
RPMI 5 mM glucose + 10% dialyzed FBS, 0.569 µM	101	99.8	111
RPMI 5 mM glucose + 10% dialyzed FBS, 1.71 µM	87.2	96.8	93.6
RPMI 5 mM glucose + 10% dialyzed FBS, 5.12 µM	87.9	91.2	114
RPMI 5 mM glucose + 10% dialyzed FBS, 15.4 µM	86	86.8	92.3
RPMI 5 mM glucose + 10% dialyzed FBS, 46.1 µM	89.7	98.9	110

AUC of viability dose-response curve
Conditions	NOMO1 [5]	P12-Ichikawa [4]	SEM cells [6]
HPLM + 10% dialyzed FBS	465	473	472
RPMI 5 mM glucose + 10% FBS	461	454	467
RPMI 5 mM glucose + 10% dialyzed FBS	447	463	460

Source: the supplement of paper PMC11451515
